Reference: patent publication US20140066394A1, “Substituted 6-(Benzylamino) Purine Riboside Derivatives, Use Thereof and Compositions Containing These Derivatives” (Biopatterns, S.R.O, priority 2009, published 2014)

What was measured:
Assay type in all cases: cell-based
neutrophils [1] = experiment: Neutrophil degranulation, release of myeloperoxidase, ELISA; details: Homo sapiens, primed neutrophils, ELISA (FIG. 4)
Method: Neutrophils were cultured at 2×10^6 cells/ml in RPMI1640 medium containing human serum antibiotics and 20 ng/ml TNFα for 10 minutes prior to addition of a range of concentrations of compound 10. Release of MPO was monitored after a 30 minute period by ELISA. Data are mean of duplicate measurements representative of 5 separate experiments.
Anti-inflammatory effects against neutrophils were determined by assessing effects of several of the compounds on neutrophil inflammatory activity (superoxide generation, secretion of chemoattractant IL8 and degranulation to release myeloperoxidase). Neutrophils were isolated from human blood to a purity of greater than 95% and were cultured in RPMI1640 medium containing 2% human AB serum, 2 mM L-glutamine and antibiotics (100 U/ml penicillin, […] streptomycin). Neutrophils were primed for 30 minutes with 50 ng/ml GM-CSF prior to treatment with the bacterial stimulant fMLP (100 ng/ml) and measurement of superoxide generation in a lucigenin based assay (see Pongracz J and Lord J M 1998, Biochem. Biophys. Res. Commun. 247, 624-629) and release of IL8 and myeloperoxidase using an ELISA method. The novel compounds were added to the culture at a range of concentrations (0.1-100 μM) 10 minutes prior to addition of fMLP. […]

[2] = tested on: human umbilical vein endothelial cells (HUVEC); experiment: Neutrophil mediated damage to endothelial cells (HUVEC viability, trypan blue); set-up: death of HUVEC treated with TNF-primed neutrophils: dose or concentration left out as unconfirmed
Method: HUVEC were cultured to confluence in tissue culture plates and incubated overnight with neutrophils treated with 20 ng/ml TNFα (+TNF),
[…] Viable cells remain attached to the plastic wells and are visualised by phase contrast light microscopy. The image shown is representative of 3 separate experiments.
ANCA are predominantly IgG autoantibodies directed against constituents of primary granules of neutrophils (PR3 and MPO). ANCA associated vasculitis is the most common primary systemic small-vessel vasculitis in adults. The common pathology of this disease is focal necrotizing lesions of blood vessels and may affect different vessels and organs. […] Neutrophils were cultured for 10 hours in RPMI1640 medium containing 2% human AB serum, 2 mM L-glutamine and antibiotics (100 U/ml penicillin, […] streptomycin) and their apoptosis determined by staining with Giemsa stain and observing an apoptotic morphology by light microscopy. […] The ability of compound 10 to inhibit ANCA-induced neutrophil inflammatory functions was also determined Neutrophils were cultured in RPMI1640 medium containing 2% human AB serum, 2 mM L-glutamine and antibiotics (100 U/ml penicillin, […] streptomycin). […] ANCA stimulated degranulation of neutrophils was assessed by release of myeloperoxidase in to the medium over a 30 minute period, with MPO measured by ELISA. […]

neutrophils [3] = experiment: Neutrophil spreading in Fibronectin; details: FIG. 8

IC50 (neutrophils [1]): 4 µM
Structure (SMILES): COc1cccc(CNc2nc(Cl)nc3c2ncn3C2OC(CO)C(O)C2O)c1O (stereo not shown) [Compound 10, 2-Chloro-6-(2-hydroxy-3-methoxybenzylamino)purine riboside]
HUVEC cell death in the presence of ANCA ([2]; ANCA-activated TNF primed-neutrophils, 24 h (90% without compound)): 50%
death of HUVEC treated with TNF-primed neutrophils ([2]; overnight / 24 h, without ANCA): completely block the death of HUVEC
neutrophil spreading in Fibronectin (neutrophils [3]): reduces neutrophil spreading
